System: patients with advanced gastric cancer (AGC)
Assay: Phase 1 study of minnelide prodrug alone or with paclitaxel in advanced gastric cancer (NCT 05566834): safety, DLT, MTD, adverse events
[1] = Regimen A (PO daily x21 d/28 d), n = 11

In the case of `CC(C)[C@]12O[C@H]1[C@@H]1O[C@]13[C@]1(O[C@H]1C[C@H]1C4=C(CC[C@@]13C)C(=O)OC4)[C@@H]2OCOP(=O)([O-])[O-].[Na+].[Na+]` [minnelide prodrug, disodium; [(1S,2S,4S,5S,7S,8R,9R,11S, 13S)-1-methyl-17-oxo-7-propan-2-yl-3,6,10,16-tetraoxaheptacyclo [11.7.0.0^2,4.0^2,9.0^5,7.0^9,11.0^14,18]icos-14 (18)-en-8-yl]oxymethyl phosphate], the “Grade 5 AEs caused by gastric cancer progression, number” value (Regimen A) is reported as 3, the “minnelide prodrug-related AE abdominal pain” value (Regimen A) is reported as 27.3% and the “minnelide prodrug-related AE anorexia” value (Regimen A) is reported as 54.5%. The “minnelide prodrug-related AE nausea” value (Regimen A) was 45.5%, the “Minnelide-related AE Abdominal pain, Any” value [1] was 3 (27.3) n (%) and the “Minnelide-related AE Abdominal pain, ≥Gr 3” value [1] was 2 (18.2) n (%). For the same compound, the “Minnelide-related AE Anorexia, Any” value [1] was 6 (54.5)/— ^ n (%), the “Minnelide-related AE Fatigue, Any” value [1] was 2 (18.2)/— ^ n (%) and the “Minnelide-related AE Nausea, Any” value [1] was 5 (45.5) n (%). For the same compound, the “Minnelide-related AE Nausea, ≥Gr 3” value [1] was 2 (18.2) n (%), the “Minnelide-related AE Neutropenia, Any” value [1] was 1 (9.1)/1 (9.1) n (%) and the “Minnelide-related AE Neutropenia, ≥Gr 3” value [1] was 1 (9.1)/1 (9.1) n (%). The “Minnelide-related AE Overall, Any” value [1] was 8 (72.7) n (%), the “Minnelide-related AE Vomiting, Any” value [1] was 1 (9.1)/1 (9.1) n (%) and the “Minnelide-related AE Vomiting, ≥Gr 3” value [1] was 1 (9.1)/1 (9.1) n (%). For the same compound, the “TRAE Abdominal pain, Any” value [1] was 5 (45.5) n (%), the “TRAE Abdominal pain, ≥Gr 3” value [1] was 2 (18.2) n (%) and the “TRAE Anemia, Any” value [1] was 2 (18.2)/2 (18.2) n (%). For the same compound, the “TRAE Anemia, ≥Gr 3” value [1] was 2 (18.2)/2 (18.2) n (%), the “TRAE Annualar scaly plaques, Any” value [1] was 1 (9.1)/— n (%) and the “TRAE Anorexia, Any” value [1] was 8 (72.7)/— n (%). The “TRAE Azotemia, Any” value [1] was 1 (9.1)/— n (%), the “TRAE Cancer pain, Any” value [1] was 3 (27.3) n (%) and the “TRAE Cancer pain, ≥Gr 3” value [1] was 1 (9.1) n (%). The “TRAE Cancer progression, Any” value [1] was 3 (27.3)/3 (27.3) n (%), the “TRAE Cancer progression, ≥Gr 3” value [1] was 3 (27.3)/3 (27.3) n (%) and the “TRAE Constipation, Any” value [1] was 1 (9.1)/— n (%). The “TRAE Decreased vision, Any” value [1] was 1 (9.1)/— n (%), the “TRAE Depression, Any” value [1] was 1 (9.1)/— n (%) and the “TRAE Dyspepsia, Any” value [1] was 1 (9.1)/— n (%). The “TRAE Dysuria, Any” value [1] was 1 (9.1)/— n (%), the “TRAE Fatigue, Any” value [1] was 3 (27.3)/— n (%) and the “TRAE Gastric stenosis, Any” value [1] was 1 (9.1)/1 (9.1) n (%). The “TRAE Gastric stenosis, ≥Gr 3” value [1] was 1 (9.1)/1 (9.1) n (%), the “TRAE Hypophosphatemi, Any” value [1] was 1 (9.1)/1 (9.1) n (%) and the “TRAE Hypophosphatemi, ≥Gr 3” value [1] was 1 (9.1)/1 (9.1) n (%). The “TRAE Nausea, Any” value [1] was 6 (54.5) n (%), the “TRAE Nausea, ≥Gr 3” value [1] was 2 (18.2) n (%) and the “TRAE Neutropenia, Any” value [1] was 1 (9.1)/1 (9.1) n (%). The “TRAE Neutropenia, ≥Gr 3” value [1] was 1 (9.1)/1 (9.1) n (%), the “TRAE Overall, Any” value [1] was 11 (100.0) n (%) and the “TRAE Overall, ≥Gr 3” value [1] was 8 (72.7) n (%). The “TRAE Tachycardia, Any” value [1] was 1 (9.1)/— n (%), the “TRAE Urinary tract infection, Any” value [1] was 1 (9.1)/— n (%) and the “TRAE Vomiting, Any” value [1] was 3 (27.3) n (%). For the same compound, the “TRAE Vomiting, ≥Gr 3” value [1] was 1 (9.1) n (%), the “dose-limiting toxicities (DLTs), number” value (Regimen A, dose level 3, 1.5 mg, Grade 3 abdominal pain) was “two and Two” and the “Minnelide-related AE Abdominal pain, Any” value (Total Regimens A-C, n = 36) was 14 (38.9) n (%). For the same compound, the “Minnelide-related AE Abdominal pain, ≥Gr 3” value (Total Regimens A-C, n = 36) was 4 (11.1) n (%), the “Minnelide-related AE Anorexia, Any” value (Total Regimens A-C, n = 36) was 15 (41.7)/— n (%) and the “Minnelide-related AE Constipation, Any” value (Total Regimens A-C, n = 36) was 1 (2.8)/— n (%). For the same compound, the “Minnelide-related AE Fatigue, Any” value (Total Regimens A-C, n = 36) was 4 (11.1)/— n (%), the “Minnelide-related AE General weakness, Any” value (Total Regimens A-C, n = 36) was 1 (2.8)/— n (%) and the “Minnelide-related AE Nausea, Any” value (Total Regimens A-C, n = 36) was 10 (27.8) n (%). For the same compound, the “Minnelide-related AE Nausea, ≥Gr 3” value (Total Regimens A-C, n = 36) was 2(5.6) n (%), the “Minnelide-related AE Neutropenia, Any” value (Total Regimens A-C, n = 36) was 11 (30.5) n (%) and the “Minnelide-related AE Neutropenia, ≥Gr 3” value (Total Regimens A-C, n = 36) was 7 (19.4) n (%). The “Minnelide-related AE Overall, Any” value (Total Regimens A-C, n = 36) was 27 (75.0) n (%), the “Minnelide-related AE Overall, ≥Gr 3” value (Total Regimens A-C, n = 36) was 10 (27.8) n (%) and the “Minnelide-related AE Pruritus, Any” value (Total Regimens A-C, n = 36) was 1 (2.8)/— n (%). For the same compound, the “Minnelide-related AE Vomiting, Any” value (Total Regimens A-C, n = 36) was 3 (8.3)/— n (%), the “TRAE Abdominal pain, Any” value (Total Regimens A-C, n = 36) was 16 (44.4) n (%) and the “TRAE Abdominal pain, ≥Gr 3” value (Total Regimens A-C, n = 36) was 4 (11.1) n (%). For the same compound, the “TRAE Alopecia, Any” value (Total Regimens A-C, n = 36) was 2 (5.6)/— n (%), the “TRAE Anemia, Any” value (Total Regimens A-C, n = 36) was 5 (13.9) n (%) and the “TRAE Anemia, ≥Gr 3” value (Total Regimens A-C, n = 36) was 3 (8.3) n (%). The “TRAE Annualar scaly plaques, Any” value (Total Regimens A-C, n = 36) was 1 (2.8)/— n (%), the “TRAE Anorexia, Any” value (Total Regimens A-C, n = 36) was 18 (50.0)/— n (%) and the “TRAE Azotemia, Any” value (Total Regimens A-C, n = 36) was 2 (5.6)/— n (%). The “TRAE Cancer pain, Any” value (Total Regimens A-C, n = 36) was 3 (8.3) n (%), the “TRAE Cancer pain, ≥Gr 3” value (Total Regimens A-C, n = 36) was 1 (2.8) n (%) and the “TRAE Cancer progression, Any” value (Total Regimens A-C, n = 36) was 4 (11.1)/4 (11.1) n (%). For the same compound, the “TRAE Cancer progression, ≥Gr 3” value (Total Regimens A-C, n = 36) was 4 (11.1)/4 (11.1) n (%), the “TRAE Constipation, Any” value (Total Regimens A-C, n = 36) was 3 (8.3)/— n (%) and the “TRAE Decreased vision, Any” value (Total Regimens A-C, n = 36) was 1 (2.8)/— n (%). The “TRAE Depression, Any” value (Total Regimens A-C, n = 36) was 1 (2.8)/— n (%), the “TRAE Dyspepsia, Any” value (Total Regimens A-C, n = 36) was 2 (5.6)/— n (%) and the “TRAE Dysuria, Any” value (Total Regimens A-C, n = 36) was 1 (2.8)/— n (%). For the same compound, the “TRAE Edema, Any” value (Total Regimens A-C, n = 36) was 1 (2.8)/— n (%), the “TRAE Fatigue, Any” value (Total Regimens A-C, n = 36) was 7 (19.4)/— n (%) and the “TRAE Gastric stenosis, Any” value (Total Regimens A-C, n = 36) was 1 (2.8)/1 (2.8) n (%). For the same compound, the “TRAE Gastric stenosis, ≥Gr 3” value (Total Regimens A-C, n = 36) was 1 (2.8)/1 (2.8) n (%), the “TRAE General weakness, Any” value (Total Regimens A-C, n = 36) was 2 (5.6)/— n (%) and the “TRAE Headache, Any” value (Total Regimens A-C, n = 36) was 1 (2.8)/— n (%). For the same compound, the “TRAE Hypercalcemia, Any” value (Total Regimens A-C, n = 36) was 1 (2.8)/1 (2.8) n (%), the “TRAE Hypercalcemia, ≥Gr 3” value (Total Regimens A-C, n = 36) was 1 (2.8)/1 (2.8) n (%) and the “TRAE Hypophosphatemi, Any” value (Total Regimens A-C, n = 36) was 1 (2.8)/1 (2.8) n (%). The “TRAE Hypophosphatemi, ≥Gr 3” value (Total Regimens A-C, n = 36) was 1 (2.8)/1 (2.8) n (%), the “TRAE Jaundice, Any” value (Total Regimens A-C, n = 36) was 1 (2.8)/1 (2.8) n (%) and the “TRAE Jaundice, ≥Gr 3” value (Total Regimens A-C, n = 36) was 1 (2.8)/1 (2.8) n (%). For the same compound, the “TRAE Mucositis, Any” value (Total Regimens A-C, n = 36) was 1 (2.8)/— n (%), the “TRAE Nausea, Any” value (Total Regimens A-C, n = 36) was 12 (33.3) n (%) and the “TRAE Nausea, ≥Gr 3” value (Total Regimens A-C, n = 36) was 2(5.6) n (%). The “TRAE Neutropenia, Any” value (Total Regimens A-C, n = 36) was 11 (30.6) n (%), the “TRAE Neutropenia, ≥Gr 3” value (Total Regimens A-C, n = 36) was 7 (19.4) n (%) and the “TRAE Overall, Any” value (Total Regimens A-C, n = 36) was 34 (94.4) n (%). The “TRAE Overall, ≥Gr 3” value (Total Regimens A-C, n = 36) was 16 (44.4) n (%), the “TRAE Pruritus, Any” value (Total Regimens A-C, n = 36) was 1 (2.8)/— n (%) and the “TRAE Rash, Any” value (Total Regimens A-C, n = 36) was 1 (2.8)/— n (%). The “TRAE Sore throat, Any” value (Total Regimens A-C, n = 36) was 1 (2.8)/— n (%), the “TRAE Tachycardia, Any” value (Total Regimens A-C, n = 36) was 2 (5.6)/— n (%) and the “TRAE Tuberculosis, Any” value (Total Regimens A-C, n = 36) was 1 (2.8)/— n (%). For the same compound, the “TRAE Urinary tract infection, Any” value (Total Regimens A-C, n = 36) was 2 (5.6)/— n (%), the “TRAE Vomiting, Any” value (Total Regimens A-C, n = 36) was 5 (13.9) n (%) and the “TRAE Vomiting, ≥Gr 3” value (Total Regimens A-C, n = 36) was 1 (2.8) n (%). For the same compound, the “TRAE Weight loss, Any” value (Total Regimens A-C, n = 36) was 1 (2.8)/— n (%), the TRAE neutropenia (all regimens, 11/36) was 30.6% and the TRAE nausea (all regimens, 12/36) was 33.3%. The TRAE abdominal pain (all regimens, 16/36) was 44.4%, the “TRAEs above Grade 3, share of patients” value (all regimens, 16 patients of 36) was 44.4% and the TRAE anorexia (all regimens, 18/36) was 50%. For the same compound, the “Grade 5 AEs caused by gastric cancer progression, number” value (all regimens, 36 patients) was “four and Four”, the “Grade 3 or higher AE with minnelide prodrug: abdominal pain” value (all regimens, n = 36) was 11.1% and the “Grade 3 or higher AE with minnelide prodrug: nausea” value (all regimens, n = 36) was 5.6%. For the same compound, the “Grade 3 or higher AE with minnelide prodrug: neutropenia” value (all regimens, n = 36) was 19.4%, the “Grade 3 or higher AEs with minnelide prodrug, overall” value (all regimens, n = 36) was 27.8% and the “TRAE above Grade 3: abdominal pain” value (all regimens, n = 36) was 11.1%. The “TRAE above Grade 3: neutropenia” value (all regimens, n = 36) was 19.4%, the “drop in blood counts: resolution after withholding the drug” value (in vivo) was 4 to 8 days and the “Grade ≥3 abdominal pain” value (monotherapy group) was 18.2%. For the same compound, the “Grade ≥3 nausea” value (monotherapy group) was 18.2%, the “Grade ≥3 neutropenia” value (monotherapy group) was 9.1% and the “Grade ≥3 vomiting” value (monotherapy group) was 9.1%. For the same compound, the “maximum tolerated dose (MTD)” value (monotherapy, PO once daily for 21 days every 4 weeks) was 1.25 mg and the “drop in blood counts: onset after start of drug” value (usually seen) was 5 to 7 days.
